According to patent publication US10246498B2, “Genetically encoded histone reporter allele constructs” (THE JOHNS HOPKINS UNIVERSITY, priority 2014, dated 2019):
Entries after “also recorded” stand apart in the source; their conditions may differ.

Key:
[1] = system: H3K4 trimethylation activity in MEFs; assay: H3K4me3 indicator in murine embryonic fibroblasts from Kmt2d+/βGeo and Kmt2d+/+ mice; assay type: cell-based, mouse; settings: Kmt2d+/βGeo cells (MEFs)
From the text: An H3K4 trimethylation reporter was also created (FIG. 5B). This reporter is based on the H3 tail on one end and the TBP associated factor III (TAFIII) […] on the other end; the TAFIII […] only identifies and binds to trimethylated K4 on H3. When the H3K4 site gets trimethylated, the TAFIII […] can bind to the modified H3 tail and bring the two parts of the separated GFP in close proximity. The activity of the epigenetic modification system can be quantified through fluorescence.
(§1) Epigenetic reporter alleles were synthesized (OriGene, Rockville, Md.) using published sequences for component elements (Baird et al. (1999) Proc. Natl. Acad. Sci. 96:11241-6; Souslova et al. (2007) BMC Biotechnol. 7:37). Single nucleotide mutations were created using the QuickChange Lightening kit (Agilent Technologies Inc, Santa Clara, Calif.). For H4ac indicator, K5R, K8R, K12R, K16R and K20R (MUT indicator) were introduced. For H3K4me3 indicator, K4Q and D890A/W891A and M882A (three separate constructs) were introduced. For transient transfections, mouse embryonic fibroblasts (see below) were transfected with Fugene HD (Promega, Madison, Wis.), 48 hours prior to FACS. […] For drug stimulation, drug was added to the media 24 hours prior to FACS. For stable transfections in T293 (American Type Culture Collection) cells, 10 μg/ml of Blastocidin (Life Technologies, Carlsbad, Calif.) was added to the media for several weeks. For stable transfection in MEFs, the reporter was transferred to a ViraPower Lentiviral Expression System (Life Technologies, Carlsbad, Calif.). After selection with Blastocidin, the drug of interest was added 24 hours prior to FACS. SAHA, AR-42 and MS275 were purchased from Selleck (Selleck Chemicals, Houston, Tex.). […] FACS data were analyzed using FlowJo (Tree Star Inc, Ashland, Oreg.). A plasmid expressing HDAC3 was acquired from Addgene (Cambridge, Mass., plasmid 13819) and transfected into a stable cell line carrying the H4 acetyl reporter allele.

[2] = system: acetylation machinery (acetylation of H4 at K5, K8, K12, K16); assay: H4 acetylation (H4ac) reporter allele, GFP fluorescence by FACS; assay type: cell-based; settings: for cells easily discriminated from auto fluorescence (% positive cells), H4ac reporter: FACS
From the text: The acetyl reporter protein quantifies the activity of the acetylation machinery (acetylation of H4 specifically at the 5th, 8th, 12th and 16th Lysine's) and comprises an H4 tail on one end (the target for acetylation) and a TBP associated factor II (TAFII) bromodomain on the other end of the reporter protein (FIG. 5A). The TAFII bromodomain only recognizes and binds to the acetylated H4 tail, resulting in reconstitution of GFP structure and function (i.e. fluorescence). Therefore, the reporter protein has no fluorescence unless it is acetylated by the acetylation system of the nucleus of the cell.
as §1
Epigenetic reporter systems were created that monitor either H4 acetylation or H3K4 trimethylation machinery activity in an effort to determine whether there is an ongoing activity deficiency in cells from Kmt2d^+/βGeo mice (FIG. 18A). Both reporter alleles encode halves of green fluorescent protein separated by a flexible linker region (Baird et al. (1999) Proc. Natl. Acad. Sci. 96: 11241-6) with a histone tail and a histone reader at the N- and C-termini, respectively. When the histone tail corresponding to either H4 or H3 is modified by acetylation or methylation, respectively, GFP structure and function are reconstituted, as detected by a fluorescent readout (FIG. 18B). The acetyl reporter protein quantifies the activity of the acetylation machinery (acetylation of H4 specifically at sites K5, K8, K12, and K16) and comprises an H4 tail (residues 1-30) on one end and a TATA binding protein (TBP)-associated factor II (TAFII) bromodomain on the other end (FIG. 18A). The TAFII bromodomain only recognizes and binds to the acetylated H4 tail. […] For example, only 5% of cells were easily discriminated from auto fluorescence with 1 μM of SAHA, but increased to 20% with 2.5 μM of SAHA, 40% at 7.5 μM of SAHA and 45% at 10 μM of SAHA (FIG. 18D). Saturation of this response correlates well with immunoblot data using antibodies to the modified H4 tail (Munshi et al. (2006) Mol. Cancer Ther. 5:1967-74). This response is attenuated by co-transfection with a construct encoding a histone deacetylase (FIG. 20) and absent upon mutagenesis of all potential acetylation sites (FIG. 18E and FIG. 18I), attesting to its specificity. The H3K4 trimethylation reporter allele encodes the H3 tail (residues 1-40) on one end and the TBP-associated factor III (TAF3) plant homeodomain (PHD) on the other end, which binds to trimethylated K4 on H3 (FIG. 18A). […]

Row | Compound | H3K4 trimethylation activity [1] | cells easily discriminated from auto fluorescence (% positive cells), H4ac reporter ([2]; 1 μM SAHA) [%] | cells easily discriminated from auto fluorescence (% positive cells), H4ac reporter ([2]; 2.5 μM SAHA) [%] | cells easily discriminated from auto fluorescence (% positive cells), H4ac reporter ([2]; 7.5 μM SAHA) [%] | cells easily discriminated from auto fluorescence (% positive cells), H4ac reporter ([2]; 10 μM SAHA) [%] | acetylation of the indicator ([2]; FIG. 19A) | signal of the H4ac indicator ([2]; HEK293 cells stably expressing the indicator, attenuated by recombinant HDAC3) | fluorescence response of the acetylation indicator ([2]; increasing amounts of drug, culture systems)
1 | Nc1ccccc1NC(=O)c1ccc(CNC(=O)OCc2cccnc2)cc1 [MS275] | enhanced; also recorded: improved | – | – | – | – | – | – | –
2 | O=C(CCCCCCC(=O)Nc1ccccc1)NO [SAHA, suberoylanilide hydroxamic acid] | – | 5 | 20 | 40 | 45 | increases acetylation of the indicator | increased signal | linear fluorescence response; also recorded: increasing fluorescence with increasing amounts
